Source: patent US20130302470A1, “L-amino-acid-containing feed additive in the form of fermentation-broth-based granules, and processes for its preparation” (EVONIK INDUSTRIES AG, priority 2012, published 2013)

Key:
[1] = Hydrothermal stability, Experiment 9.1: extruded aquafeed (lysine recovery); type: physicochemical
Excerpt: (§1) So as to be able to assess what is known as the hydrothermal stability of the additives, and to compare them with each other, the production processes for producing pelleted and extruded aquafeed was reproduced on a small scale. In each case two feed blends which differ only in respect of the L-lysine additive were employed, mixture A being supplemented with 0.50% granular feed additive according to the present invention and mixture B with 0.32% Lys×HCl, which corresponded in each case to identical lysine base concentrations. The granular feed additive according to the invention contained 50.7% by weight of lysine in the form of lysine sulphate and 10% by weight of biomass.
The process parameters, such as, for example, residence time, temperature or water content, were set at values which are typically used in practice. […] The hydrothermal stabilities of the test additives upon processing in the processes in question can be assessed relative to one another via the recovery rates. […]
The hydrothermal stability of the granules according to the present invention was compared with the hydrothermal stability of Lys×HCl. The hydrothermal stability of the additives for extruded shrimp/prawn feed was examined and assessed during the entire respective process. […]
In the amino acid determination, the supplemented amino acid lysine was determined. […]

rainbow trout = details: aquafeed with different lysine concentrations, FIG. 8; cited from earlier work
[2] = Hydrothermal stability, Experiment 9.2: pelleted aquafeed (lysine recovery); type: physicochemical; details: pelleting process
Excerpt: as §1
The process parameters, such as, for example, residence time, temperature or water content, were set at values which are typically used in practice. During the experiments, samples of the feed blend were taken after the respective individual process steps and subjected to extensive amino acid analysis. The hydrothermal stabilities of the test additives upon processing in the processes in question can be assessed relative to one another via the recovery rates.
The feed blends corresponded to representative state-of-the-art formulas. […]
In the amino acid determination, the supplemented amino acid lysine was determined. […] Thereafter, the amino acids were subjected to photometric quantitation at 570 nm. […]

Cl.NCCCC[C@H](N)C(=O)O [lysine HCl, L-lysine monohydrochloride]
Lysine lost during the processing to give shrimp/prawn feed ([1]; extrusion process): 8.6% | Stability of the lysine in the shrimp/prawn feed production process (comparison) ([1]; extrusion, lysine sulphate granules versus lysine HCl): markedly more unstable | Effect of the nature of the lysine source on the weight increase of trout (rainbow trout): no effect on the weight increase | Lysine loss upon pelleting [2]: approximately 3.3%
